Measurements as given in US6855715B1, “Serine protease inhibitors” (Eli Lilly and Company, priority 1999, dated 2005).

Legend:
plasma = test: Partial Thromboplastin Time (Prothrombin) Test Protocol; assay type: biochemical; conditions: concentration of the solution added; final concentration in the assay mixture is one third of this value; Example 66 and comparison compounds: average of 3 tests
Description: The ability of a test compound to elongate Partial Thromboplastin Time (Prothrombin Time) may be evaluated in the following test protocols.
Partial Thromboplastin Time (Prothrombin) Test Protocol Venous blood was collected into 3.2% (0.109 m) trisodium citrate vacutainer tubes at 1 volume of anticoagulant to nine volumes of blood. The blood cells were separated by centrifugation at 700 g for ten minutes to yield plasma, which was frozen at […] until required.
To perform the test, 100 μl of plasma was pipetted into in a glass test tube, 1 μl of test compound in DMSO was added, and allowed to warm to 37° over two minutes. 100 μl of warm (37°) Manchester (tissue thromboplasin) reagent (Helena Biosciences, UK) was added, allowed to equilibrate for two minutes. 100 μl of warm (37°) 25 mM calcium chloride solution was added to initiate clotting. The test tube was tilted three times through a 90° angle every five seconds to mix the reagents and the time to clot formation recorded. Data from a series of observations and test compound concentrations are analysed by a SAS statistical analysis program and a CT2 (Concentration required to double clotting time) for each compound is generated.

Molecule	Conc. necessary to double the prothrombin time (plasma) [µM]	melting point
COc1ccc(C(=O)N[C@@H](C(=O)N2CCC(C3CCN(C)CC3)CC2)c2ccccc2)cc1N [Example 69, 1-(3-Amino-4-methoxybenzoyl-D-phenylglycinyl)-1′-methyl-4,4′-bispiperidine]	5.8	–
COc1ccc(C(=O)N[C@@H](CNC(=O)C2CCN(C3CCN(C)CC3)CC2)c2ccccc2)cc1 [Example 262, (R)-N-[2-(4-Methoxybenzoylamino)-2-phenylethyl]-1-(1-methylpiperidin-4-yl)piperidine-4-carboxamide]	–	252 to 259 °C
CN1CCC(C2CCN(C(=O)[C@H](NC(=O)c3cc4ccccc4cc3N)c3ccccc3)CC2)CC1 [Example 65, 1-(3-Aminonaphth-2-oyl-D-phenylglycinyl)-1′-methyl-4,4′-bispiperidine]	6.1	–
CN1CCC(C2CCN(C(=O)[C@H](NC(=O)c3ccc(Cl)c(N)c3)c3ccccc3)CC2)CC1 [Example 63, 1-(3-Amino-4-chlorobenzoyl-D-phenylglycinyl)-1′-methyl-4,4′-bispiperidine]	2.1	–
CN1CCC(C2CCN(C(=O)[C@H](NC(=O)c3ccc(Br)c(N)c3)c3ccccc3)CC2)CC1 [Example 68, 1-(3-Amino-4-bromobenzoyl-D-phenylglycinyl)-1′-methyl-4,4′-bispiperidine]	3.6	–
COc1ccc(C(=O)N[C@@H](CNC(=O)C2CCN(C3CCCCC3)CC2)c2ccccc2)cc1 [Example 260, (R)-N-[2-(4-Methoxybenzoylamino)-2-phenylethyl]-1-cyclohexylpiperidine-4-carboxamide]	–	239 to 243 °C
CN1CCC(C2CCN(C(=O)[C@H](NC(=O)c3ccc4cc[nH]c4c3)c3ccccc3)CC2)CC1 [Example 66, 1-(Indol-6-carbonyl-D-phenylglycinyl)-1′-methyl-4,4′-bispiperidine]	2.1	–
COc1ccc(C(=O)N[C@@H](CNC(=O)c2ccc(C(C)(C)C)cc2)c2ccccc2)cc1 [Example 257, (R)-N-[2-(4-Methoxybenzoylamino)-2-phenylethyl]-4-tert-butylbenzamide]	–	171 to 175 °C
Cc1ccc(C(=O)N[C@@H](C(=O)N2CCC(C3CCN(C)CC3)CC2)c2ccccc2)cc1N [Example 64, 1-(3-Amino-4-methylbenzoyl-D-phenylglycinyl)-1′-methyl-4,4′-bispiperidine]	4.4	–
1-(3,4 Diaminobenzoyl-D-phenylglycinyl)-4-(4-fluoro-2-methylsulphonylphenyl)piperazine [Example 32]	11	–
COc1ccc(C(=O)N[C@@H](C(=O)N2CCN(CC3CCN(C(C)C)CC3)CC2)c2ccccc2)cc1.Cl	–	172 to 180 °C (dec.)
CS(=O)(=O)c1cc(F)ccc1N1CCN(C(=O)[C@H](NC(=O)c2cc(N)ccc2N)c2ccccc2)CC1 [Example 27, 1-(2,5-Diaminobenzoyl-D-phenylglycinyl)-4-(4-fluoro-2-methylsulphonylphenyl)piperazine]	6.7	–
COc1ccc(C(=O)N[C@@H](C(=O)N2CCN(c3ccc(F)cc3S(C)(=O)=O)CC2)c2ccccc2)cc1N [Example 40, 1-(3-Amino-4-methoxybenzoyl-D-phenylglycinyl)-4-(4-fluoro-2-methylsulphonylphenyl)piperazine]	12	–
CNc1ccc(C(=O)N[C@@H](C(=O)N2CCC(C3CCN(C)CC3)CC2)c2ccccc2)cc1 [Example 70, 1-(4-(Methylamino)benzoyl-D-phenylglycinyl)-1′-methyl-4,4′-bispiperidine]	4.0	–
Cc1ccc(C(=O)N[C@@H](C(=O)N2CCN(c3ccc(F)cc3S(C)(=O)=O)CC2)c2ccccc2)cc1N [Example 38, 1-(3-Amino-4-methylbenzoyl-D-phenylglycinyl)-4-(4-fluoro-2-methylsulphonylphenyl)piperazine]	9.0	–
CCN1CCC(C(=O)NC[C@H](NC(=O)c2ccc(OC)cc2)c2ccccc2)CC1 [Example 261, (R)-N-[2-(4-Methoxybenzoylamino)-2-phenylethyl]-1-ethylpiperidine-4-carboxamide]	–	245 to 251 °C
COc1ccc(C(=O)N[C@@H](C(=O)N2CCN(c3ccc(F)cc3S(C)(=O)=O)CC2)c2ccccc2)cc1 [Example 39, 1-(4-Methoxybenzoyl-D-phenylglycinyl)-4-(4-fluoro-2-methylsulphonylphenyl)piperazine]	12	–
COc1ccc(C(=O)N[C@@H](C(=O)N2CCN(CCC3CCCC3)CC2)c2ccccc2)cc1.Cl.O (hydrate or solvate)	–	190 to 192 °C
COc1ccc(C(=O)N[C@@H](CNC(=O)c2ccc(C(C)C)cc2)c2ccccc2)cc1 [Example 256, (R)-N-[2-(4-Methoxybenzoylamino)-2-phenylethyl]-4-isopropylbenzamide]	–	239 to 244 °C
Nc1cc2ccccc2cc1C(=O)N[C@@H](C(=O)N1CCC(C2CCNCC2)CC1)c1ccccc1 [Example 8, 1-(3-Amino-2-naphthoyl-D-phenylglycinyl)-4,4′-bispiperidine]	26	–
CS(=O)(=O)c1cc(F)ccc1N1CCN(C(=O)[C@H](NC(=O)c2cccc(N)c2)c2ccccc2)CC1 [Example 30, 1-(3-Aminobenzoyl-D-phenylglycinyl)-4-(4-fluoro-2-methylsulphonylphenyl)piperazine]	7.8	–
COc1ccc(C(=O)N[C@@H](CNC(=O)c2ccc(C)cc2)c2ccccc2)cc1 [Example 254, (R)-N-[2-(4-Methoxybenzoylamino)-2-phenylethyl]-4-methylbenzamide]	–	230 to 238 °C
CN1CCC(C2CCN(C(=O)[C@H](NC(=O)c3cccc(N)c3)c3ccccc3)CC2)CC1 [Example 62, 1-(3-Aminobenzoyl-D-phonylglycinyl)-1′-methyl-4,4′-bispiperidine]	8.6	–
CCc1ccc(C(=O)NC[C@H](NC(=O)c2ccc(OC)cc2)c2ccccc2)cc1 [Example 255, (R)-N-[2-(4-Methoxybenzoylamino)-2-phenylethyl]-4-ethylbenzamide]	–	222 to 229 °C
CS(=O)(=O)c1cc(F)ccc1N1CCN(C(=O)[C@H](NC(=O)c2ccc3ccnc(N)c3c2)c2ccccc2)CC1.O=C(O)C(F)(F)F.O=C(O)C(F)(F)F [1-aminoisoquinolin-7-oyl-D-phenylglycine-4-(4-fluoro-2-methanesulfonylphenyl)-piperazinamide ditrifluoroactetate salt, reference compound]	45	–
COc1ccc(C(=O)N[C@@H](CNC(=O)C2CCN(C3CCCC3)CC2)c2ccccc2)cc1 [Example 259, (R)-N-[2-(4-Methoxybenzoylamino)-2-phenylethyl]-1-cyclopentylpiperidine-4-carboxamide]	–	253 to 257 °C
